The target in experiment [1] is T1, DNA gyrase (Escherichia coli, UniProt P0AES4+P0AES6). As to the kind of experiment: Binding affinity to Escherichia coli DNA gyrase subunit B N-terminal 24 kDa domain by SPR assay. The class given is protein-complex assay. A general note: SPR reads the build-up and loss of mass on a sensor chip optically.
A short description of experiment [2]: Inhibition of Escherichia coli DNA Gyrase ATPase activity assessed as reduction in conversion of NADH to NAD+ using linear pBR322 substrate.
The target of experiment [3] is T1, DNA gyrase. As to the kind of experiment: Inhibition of Escherichia coli DNA gyrase using relaxed pNO1 plasmid and biotinylated oligonucelotide incubated for 30 mins by fluorescence based DNA super-coiling assay. The class given is protein-complex assay.
For experiment [4], the target named is DNA gyrase (Staphylococcus aureus) (UniProt P0A0K8+P20831). The experiment in a line: Inhibition of Staphylococcus aureus DNA gyrase assessed as residual enzyme activity at 100 uM using relaxed pNO1 plasmid and biotinylated oligonucelotide incubated for 30 mins by fluorescence based DNA super-coiling assay. Type of experiment: protein-complex assay.
Chain of DNA gyrase (Staphylococcus aureus) (P0A0K8 2-644 limits assumed): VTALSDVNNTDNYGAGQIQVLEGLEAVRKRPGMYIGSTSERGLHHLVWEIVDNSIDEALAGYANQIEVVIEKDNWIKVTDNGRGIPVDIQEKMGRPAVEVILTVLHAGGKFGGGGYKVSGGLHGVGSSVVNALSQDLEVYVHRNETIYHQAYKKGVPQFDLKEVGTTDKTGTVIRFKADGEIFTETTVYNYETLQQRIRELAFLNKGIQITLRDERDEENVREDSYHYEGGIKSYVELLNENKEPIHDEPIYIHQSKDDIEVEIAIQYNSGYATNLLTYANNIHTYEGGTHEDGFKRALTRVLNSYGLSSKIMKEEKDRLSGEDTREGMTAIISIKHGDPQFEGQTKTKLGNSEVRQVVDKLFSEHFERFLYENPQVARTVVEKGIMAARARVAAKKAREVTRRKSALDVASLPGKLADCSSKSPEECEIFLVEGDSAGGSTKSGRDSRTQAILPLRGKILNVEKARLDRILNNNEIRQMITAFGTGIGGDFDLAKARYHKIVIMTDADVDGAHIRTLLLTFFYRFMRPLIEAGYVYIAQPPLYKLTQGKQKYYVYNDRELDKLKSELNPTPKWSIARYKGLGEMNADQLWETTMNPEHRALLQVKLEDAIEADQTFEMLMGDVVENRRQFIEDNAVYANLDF
Chain of DNA gyrase (Staphylococcus aureus) (P20831 whole entry partner): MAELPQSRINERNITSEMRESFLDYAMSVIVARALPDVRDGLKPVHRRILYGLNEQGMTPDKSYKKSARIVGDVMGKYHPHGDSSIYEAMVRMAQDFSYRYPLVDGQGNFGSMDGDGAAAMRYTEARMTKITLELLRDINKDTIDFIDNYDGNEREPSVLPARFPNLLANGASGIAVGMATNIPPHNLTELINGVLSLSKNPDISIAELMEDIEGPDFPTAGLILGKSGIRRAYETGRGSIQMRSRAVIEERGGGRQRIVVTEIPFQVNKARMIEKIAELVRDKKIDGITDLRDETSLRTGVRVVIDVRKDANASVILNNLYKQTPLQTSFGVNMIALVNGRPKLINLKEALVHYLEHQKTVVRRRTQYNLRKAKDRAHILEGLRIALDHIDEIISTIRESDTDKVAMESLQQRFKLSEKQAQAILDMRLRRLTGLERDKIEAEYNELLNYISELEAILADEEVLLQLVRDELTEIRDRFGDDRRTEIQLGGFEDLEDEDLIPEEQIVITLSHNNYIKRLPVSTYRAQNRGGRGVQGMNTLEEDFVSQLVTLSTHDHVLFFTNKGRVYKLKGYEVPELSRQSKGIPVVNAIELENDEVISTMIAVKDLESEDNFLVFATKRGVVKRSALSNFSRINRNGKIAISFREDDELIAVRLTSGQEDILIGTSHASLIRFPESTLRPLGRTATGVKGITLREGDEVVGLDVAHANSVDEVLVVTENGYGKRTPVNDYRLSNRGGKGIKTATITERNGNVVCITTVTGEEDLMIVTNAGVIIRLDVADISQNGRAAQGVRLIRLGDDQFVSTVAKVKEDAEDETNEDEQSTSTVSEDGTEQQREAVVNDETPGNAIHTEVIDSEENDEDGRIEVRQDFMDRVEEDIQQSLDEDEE
For experiment [5], the system named is Escherichia coli. The experiment in a line: Inhibition of Escherichia coli DNA topoisomerase 4 assessed as residual enzyme activity at 100 uM using relaxed pNO1 plasmid and biotinylated oligonucelotide incubated for 30 mins by fluorescence based DNA relaxation assay.
Experiment [6] concerns the target Topoisomerase IV (Staphylococcus aureus) (UniProt P0C1U9+P0C1S7). As to the kind of experiment: Inhibition of Staphylococcus aureus DNA topoisomerase 4 assessed as residual enzyme activity at 100 uM using relaxed pNO1 plasmid and biotinylated oligonucelotide incubated for 30 mins by fluorescence based DNA relaxation assay. Type of experiment: protein-complex assay.

Experiment [7] concerns Escherichia coli. The experiment in a line: Antibacterial activity against wild type Escherichia coli ATCC 25922 by broth microdilution method. The class given is functional. Background: Dilution methods test growth across graded concentrations, often in twofold steps.
For experiment [8], the system named is Escherichia coli. As to the kind of experiment: Antibacterial activity against efflux deficient Escherichia coli tolC::Tn10 lacking functional tolC gene by broth microdilution method.
In experiment [9] the test system is Escherichia coli. As to the kind of experiment: Antibacterial activity against Escherichia coli imp4213::Tn10 by broth microdilution method. The class given is functional.
Experiment [10] concerns Escherichia coli. The experiment in a line: Antibacterial activity against wild type Escherichia coli ATCC 25922 assessed as inhibition of microbial growth at 50 uM by broth microdilution method. Type of experiment: functional. As to conditions: read-out: GI.
For experiment [11], the system named is Pseudomonas aeruginosa. As to the kind of experiment: Antibacterial activity against Pseudomonas aeruginosa ATCC 27853 assessed as inhibition of microbial growth at 50 uM by broth microdilution method. The class given is functional. As to conditions: read-out: GI.
Experiment [12] deals with Enterococcus faecalis. The experiment in a line: Antibacterial activity against Enterococcus faecalis ATCC 29212 assessed as inhibition of microbial growth at 50 uM by broth microdilution method. The class given is functional. As to conditions: read-out: GI.
The subject of experiment [13] is Staphylococcus aureus. As to the kind of experiment: Antibacterial activity against Staphylococcus aureus 25923 assessed as inhibition of microbial growth at 50 uM by broth microdilution method. To be noted: read-out: GI. Type of experiment: functional.
Experiment [14] relates to Escherichia coli. As to the kind of experiment: Antibacterial activity against wild type Escherichia coli ATCC 25922 assessed as inhibition of microbial growth by broth microdilution method. The class given is functional.
Experiment [15] concerns Pseudomonas aeruginosa. The experiment in a line: Antibacterial activity against Pseudomonas aeruginosa ATCC 27853 assessed as inhibition of microbial growth by broth microdilution method. Type of experiment: functional.
The subject of experiment [16] is Enterococcus faecalis. As to the kind of experiment: Antibacterial activity against Enterococcus faecalis ATCC 29212 assessed as inhibition of microbial growth by broth microdilution method. The class given is functional.
Experiment [17] has as its system Staphylococcus aureus. As to the kind of experiment: Antibacterial activity against Staphylococcus aureus 25923 assessed as inhibition of microbial growth by broth microdilution method. Type of experiment: functional.
The target of experiment [18] is DNA gyrase (Staphylococcus aureus, UniProt P0A0K8+P20831). As to the kind of experiment: Inhibition of Staphylococcus aureus DNA gyrase using relaxed pNO1 plasmid and biotinylated oligonucelotide incubated for 30 mins by fluorescence based DNA super-coiling assay. Type of experiment: protein-complex assay.
Chain of DNA gyrase (Staphylococcus aureus, UniProt P0A0K8+P20831) (P0A0K8 whole entry): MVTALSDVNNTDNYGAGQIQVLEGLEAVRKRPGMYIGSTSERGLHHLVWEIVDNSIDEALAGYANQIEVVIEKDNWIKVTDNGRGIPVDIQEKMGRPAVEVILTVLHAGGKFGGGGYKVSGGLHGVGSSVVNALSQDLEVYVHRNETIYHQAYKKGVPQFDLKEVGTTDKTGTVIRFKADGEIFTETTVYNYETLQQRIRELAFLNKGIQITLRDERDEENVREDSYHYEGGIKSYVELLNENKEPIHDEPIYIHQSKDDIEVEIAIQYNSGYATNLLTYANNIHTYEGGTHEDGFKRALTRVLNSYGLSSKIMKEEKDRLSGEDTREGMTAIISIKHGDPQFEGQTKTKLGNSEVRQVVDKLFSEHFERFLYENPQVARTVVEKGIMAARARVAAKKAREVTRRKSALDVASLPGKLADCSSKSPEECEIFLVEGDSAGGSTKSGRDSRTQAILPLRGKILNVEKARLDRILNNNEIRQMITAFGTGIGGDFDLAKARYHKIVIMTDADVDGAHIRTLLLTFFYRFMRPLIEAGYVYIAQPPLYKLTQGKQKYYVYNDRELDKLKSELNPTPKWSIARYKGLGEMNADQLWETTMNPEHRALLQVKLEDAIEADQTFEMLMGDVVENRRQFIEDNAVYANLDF
Chain of DNA gyrase (Staphylococcus aureus, UniProt P0A0K8+P20831) (P20831 whole entry): as the sequence (P20831 whole entry partner) above
A short description of experiment [19]: Inhibition of Escherichia coli DNA topoisomerase 4 using relaxed pNO1 plasmid and biotinylated oligonucelotide incubated for 30 mins by fluorescence based DNA relaxation assay.
The target in a further experiment is Topoisomerase IV (Staphylococcus aureus, UniProt P0C1S7+P0C1U9). As to the kind of experiment: Inhibition of Staphylococcus aureus DNA topoisomerase 4 using relaxed pNO1 plasmid and biotinylated oligonucelotide incubated for 30 mins by fluorescence based DNA relaxation assay. Type of experiment: protein-complex assay.
Chain of Topoisomerase IV (P0C1U9 whole entry): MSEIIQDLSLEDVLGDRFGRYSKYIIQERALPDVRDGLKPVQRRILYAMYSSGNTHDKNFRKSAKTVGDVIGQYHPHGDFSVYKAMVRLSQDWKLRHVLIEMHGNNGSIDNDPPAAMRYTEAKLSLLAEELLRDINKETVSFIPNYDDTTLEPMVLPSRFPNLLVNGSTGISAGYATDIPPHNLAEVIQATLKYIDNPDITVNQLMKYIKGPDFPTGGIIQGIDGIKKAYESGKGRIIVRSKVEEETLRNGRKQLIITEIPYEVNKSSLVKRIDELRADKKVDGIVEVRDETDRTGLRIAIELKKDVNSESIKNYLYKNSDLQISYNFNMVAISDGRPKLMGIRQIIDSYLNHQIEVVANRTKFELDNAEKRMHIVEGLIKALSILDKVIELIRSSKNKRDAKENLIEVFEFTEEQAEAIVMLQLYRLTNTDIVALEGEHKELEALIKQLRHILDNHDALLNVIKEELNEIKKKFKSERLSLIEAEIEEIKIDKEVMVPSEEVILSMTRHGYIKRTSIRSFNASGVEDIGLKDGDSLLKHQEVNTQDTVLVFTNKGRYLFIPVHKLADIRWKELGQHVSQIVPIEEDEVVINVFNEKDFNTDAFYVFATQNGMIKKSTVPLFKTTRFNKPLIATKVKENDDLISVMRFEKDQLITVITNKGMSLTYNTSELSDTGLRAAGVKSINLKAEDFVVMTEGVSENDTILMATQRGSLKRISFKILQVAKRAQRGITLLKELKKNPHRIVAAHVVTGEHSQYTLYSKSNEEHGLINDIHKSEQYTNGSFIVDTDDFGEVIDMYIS
Chain of Topoisomerase IV (P0C1S7 whole entry): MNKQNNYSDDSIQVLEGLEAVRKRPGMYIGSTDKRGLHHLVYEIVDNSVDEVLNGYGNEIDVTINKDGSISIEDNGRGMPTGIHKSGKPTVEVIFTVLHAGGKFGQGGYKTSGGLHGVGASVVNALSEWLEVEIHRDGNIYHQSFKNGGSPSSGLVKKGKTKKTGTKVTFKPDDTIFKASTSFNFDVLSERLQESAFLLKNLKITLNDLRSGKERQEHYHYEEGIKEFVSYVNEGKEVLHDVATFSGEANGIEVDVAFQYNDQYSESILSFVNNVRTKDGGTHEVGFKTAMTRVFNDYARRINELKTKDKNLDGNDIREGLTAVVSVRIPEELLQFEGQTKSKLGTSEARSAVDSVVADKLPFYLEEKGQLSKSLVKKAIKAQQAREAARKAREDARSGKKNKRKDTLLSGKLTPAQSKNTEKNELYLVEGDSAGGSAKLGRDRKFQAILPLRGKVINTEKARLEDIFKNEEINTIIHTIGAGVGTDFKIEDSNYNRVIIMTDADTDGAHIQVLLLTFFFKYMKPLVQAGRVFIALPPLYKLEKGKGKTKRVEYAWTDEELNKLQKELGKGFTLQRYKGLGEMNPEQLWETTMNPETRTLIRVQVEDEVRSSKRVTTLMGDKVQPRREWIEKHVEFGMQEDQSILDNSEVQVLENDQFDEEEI

In brackets after ≈: the same amount, converted by molar mass. Where only a bound is given, the exact number is not on record here.

Consider `O=C(O)CC(=O)Nc1nc2c(s1)C[C@@H](NC(=O)c1cc(Cl)c(Cl)[nH]1)CC2`, for which the Kd (usually the concentration at which binding is half-saturated) on DNA gyrase [1] is 0.049 µM. Moreover, the IC50 (as a rule, the concentration that gives 50% inhibition) in experiment [2] turned out to be 0.66 µM; on DNA gyrase [3] it was 0.13 µM. The Activity in experiment [4] worked out at 87%; in the experiment on Escherichia coli [5], 98%; in experiment [6], 102%. Besides, the MIC – broadly, the least concentration at which growth counts as inhibited – is > 256 µg/mL against Escherichia coli [7]; > 256 µg/mL in the experiment with Escherichia coli [8]; > 256 µg/mL against Escherichia coli [9]; > 125 µM in the experiment on Escherichia coli [14]; > 125 µM in the experiment on Pseudomonas aeruginosa [15]; > 125 µM in the experiment with Enterococcus faecalis [16]. Moreover, the MIC in the experiment with Staphylococcus aureus [17] was > 125 µM. Moreover, the inhibition of growth at 50 µM in the experiment with Escherichia coli [10], with Pseudomonas aeruginosa [11], in the experiment with Enterococcus faecalis [12] and in the experiment on Staphylococcus aureus [13] was < 50% in each case.
Regarding `CCOC(=O)C(=O)Nc1nc2c(s1)C[C@@H](NC(=O)c1cc(Cl)c(Cl)[nH]1)CC2`, the IC50 was determined as 0.4 µM against DNA gyrase [3], 320 µM at DNA gyrase [18], 300 µM in experiment [19] and 290 µM against Topoisomerase IV. The minimal inhibitory concentration (MIC) is > 256 µg/mL against Escherichia coli [7]; 256 µg/mL (≈ 594 µM) in the experiment on Escherichia coli [8]; > 256 µg/mL against Escherichia coli [9]; > 125 µM with Escherichia coli [14]; > 125 µM with Pseudomonas aeruginosa [15]; > 125 µM in the experiment on Enterococcus faecalis [16]. In addition, in the experiment with Staphylococcus aureus [17], the MIC was > 125 µM. Besides, the inhibition of growth at 50 µM with Escherichia coli [10], in the experiment on Pseudomonas aeruginosa [11], with Enterococcus faecalis [12] and in the experiment on Staphylococcus aureus [13] was < 50% in each case.
With `COC(=O)CC(=O)Nc1nc2c(s1)C[C@@H](NC(=O)c1cc(Br)c(Br)[nH]1)CC2`, the Kd on DNA gyrase [1] is 0.072 µM. Moreover, the IC50 at DNA gyrase [3] stood at 0.096 µM; on DNA gyrase [18] it was 110 µM; in experiment [19], 86 µM. Moreover, in [6], the Activity was found to be 74%. The MIC is > 256 µg/mL against Escherichia coli [7]; 16 µg/mL (≈ 30.8 µM) against Escherichia coli [8]; 32 µg/mL (≈ 61.5 µM) against Escherichia coli [9]; > 125 µM in the experiment with Escherichia coli [14]; > 125 µM in the experiment on Pseudomonas aeruginosa [15]; > 125 µM with Enterococcus faecalis [16]. Besides, the MIC in the experiment on Staphylococcus aureus [17] is > 125 µM. For the same molecule, the inhibition of growth at 50 µM with Escherichia coli [10], in the experiment with Pseudomonas aeruginosa [11], with Enterococcus faecalis [12] and with Staphylococcus aureus [13] was < 50% in each case.
The molecule `O=C(O)CC(=O)Nc1nc2c(s1)C[C@@H](NC(=O)c1cc(Br)c(Br)[nH]1)CC2` came in with a dissociation constant (Kd) at DNA gyrase [1] of 0.042 µM. The IC50 against DNA gyrase [3] is 0.069 µM; against DNA gyrase [18] it was 86 µM; in experiment [19], 74 µM; against Topoisomerase IV, 76 µM. Further, the MIC against Escherichia coli [7] was > 256 µg/mL; in the experiment on Escherichia coli [8], > 256 µg/mL; against Escherichia coli [9], > 256 µg/mL; in the experiment with Escherichia coli [14] it was > 125 µM; in the experiment on Pseudomonas aeruginosa [15], > 125 µM; in the experiment on Enterococcus faecalis [16], > 125 µM. In addition, the MIC in the experiment with Staphylococcus aureus [17] was > 125 µM. The inhibition of growth at 50 µM in the experiment with Escherichia coli [10], with Pseudomonas aeruginosa [11], in the experiment with Enterococcus faecalis [12] and in the experiment on Staphylococcus aureus [13] was < 50% throughout.
In turn, `Nc1nc2c(s1)C[C@@H](NC(=O)c1cc(Br)c(Br)[nH]1)CC2` gave a Kd on DNA gyrase [1] of 3 µM. The IC50 in [2] was found to be 25 µM; against DNA gyrase [3] it was 12 µM. For the same molecule, the Activity in experiment [4] was 90%; with Escherichia coli [5], 101%; in experiment [6] it was 102%. Besides, the MIC in the experiment on Escherichia coli [7] was > 256 µg/mL; in the experiment on Escherichia coli [8], 64 µg/mL (≈ 152 µM); with Escherichia coli [9] it was 64 µg/mL (≈ 152 µM); in the experiment with Escherichia coli [14] it was > 125 µM; in the experiment on Pseudomonas aeruginosa [15], > 125 µM; in the experiment on Enterococcus faecalis [16], > 125 µM. Moreover, the MIC in the experiment on Staphylococcus aureus [17] was > 125 µM. Besides, the inhibition of growth at 50 µM with Escherichia coli [10], in the experiment on Pseudomonas aeruginosa [11], with Enterococcus faecalis [12] and in the experiment on Staphylococcus aureus [13] was < 50% throughout.
